Series [1] has as its system MOLM-13 cells. In words: In vitro cell activity assay (CCK-8 proliferation), MOLM-13. In kind it is cell-based. The settings on record: Homo sapiens, CCK-8, 72-120 h, read-out: IC50 (nM) for inhibitory activity against proliferation of MOLM-13 cells. The protocol: (§1) MOLM-13 cells or MV-4-11 cells (source: Nanjing Cobioer Biosciences Co., Ltd.) in a good growth state were taken and seeded into a 96-well plate (100 µL/well) at 2000-10000 cells/well. After the cells were cultured overnight in a cell incubator at 37 °C, the compounds were subjected to gradient dilution and added using a pipettor, with 2 parallel replicate wells in each group. Meanwhile, a control group was set. After the cells were cultured in a cell incubator at 37 °C for another 72-120 h, the detection reagent CCK-8 (manufacturer: Dojindo Laboratories, Japan; 10 µL/well) was added. After the cells were cultured at 37 °C for another 3-5 h, absorbance values were measured at […] using a PerkinElmer Envision multi-functional microplate reader. Four-parameter analysis was performed in GraphPad Prism software to fit dose-response curves and calculate IC50 values. A represents that IC50 < 50 nM. Table 1. Inhibitory activity against cell proliferation

Series [2] deals with MV-4-11 cells. Briefly: In vitro cell activity assay (CCK-8 proliferation), MV-4-11. Type of series: cell-based. The settings on record: Homo sapiens, MV4-11; CCK-8, 72-120 h; read-out: IC50 (nM) for inhibitory activity against proliferation of MV-4-11 cells. The protocol: as §1
Series [3] addresses T1, Menin-MLL interaction (Homo sapiens, UniProt O00255).
T1 construct: GST-MENIN (1-615 aa) and FITC-MLL15-43 were diluted with an FP buffer
T1 sequence (O00255 1-615 isoform O00255-1): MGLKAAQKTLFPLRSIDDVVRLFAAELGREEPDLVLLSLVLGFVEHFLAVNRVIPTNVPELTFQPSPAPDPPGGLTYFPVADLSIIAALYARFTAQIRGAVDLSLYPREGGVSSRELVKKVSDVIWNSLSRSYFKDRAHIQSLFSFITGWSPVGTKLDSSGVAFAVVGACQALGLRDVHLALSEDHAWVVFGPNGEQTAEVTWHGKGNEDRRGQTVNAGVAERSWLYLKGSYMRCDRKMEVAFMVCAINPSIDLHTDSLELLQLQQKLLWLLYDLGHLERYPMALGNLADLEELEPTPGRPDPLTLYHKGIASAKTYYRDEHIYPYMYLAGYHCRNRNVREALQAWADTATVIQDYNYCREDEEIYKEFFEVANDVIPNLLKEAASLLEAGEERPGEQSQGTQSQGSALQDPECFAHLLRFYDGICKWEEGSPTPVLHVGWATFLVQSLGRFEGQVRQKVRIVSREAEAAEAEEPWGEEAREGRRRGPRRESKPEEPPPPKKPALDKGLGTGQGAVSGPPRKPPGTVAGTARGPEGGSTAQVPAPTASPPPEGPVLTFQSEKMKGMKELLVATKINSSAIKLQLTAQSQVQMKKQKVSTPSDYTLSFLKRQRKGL
In words: Fluorescence polarization assay of Menin-MLL interaction. The settings on record: GST-MENIN (1-615 aa) 8 nM, FITC-MLL15-43 8 nM; read-out: IC50 (nM) for inhibitory activity against Menin-MLL protein binding. As to the method: The binding activity of the compounds for the menin protein was determined by a fluorescence polarization assay. GST-MENIN (1-615 aa) and FITC-MLL15-43 were diluted with an FP buffer (50 mM Tris-HCl pH 7.5, 50 mM NaCl, 1 mM DTT, 0.01% BSA), and the mixed solution of GST-MENIN (1-615 aa) at a final concentration of 8 nM and FITC-MLL15-43 at a final concentration of 8 nM was added to a black 384-well microtiter plate at 10 µL/well. The plate was centrifuged at 2500 rpm for 1 min and incubated at room temperature in the dark for 1 h. 5 µL of diluted compound (7 concentration points, 4-fold serial dilution, with blank control and negative control wells set) was added, and the plate was centrifuged at 2500 rpm for 1 min and incubated at room temperature in the dark for 3 h. After incubation, FP (480/535) values were measured using a PerkinElmer Envision multi-functional microplate reader, and the ability of the compounds to inhibit the Menin-MLL interaction was determined by calculating the inhibition rate (%) for each compound concentration according to formula 1; formula 1: inhibition rate (%) = 1 - (Maximum mP Control - mP of administration group)/(Maximum mP Control - minimum mP Control) × 100%. Four-parameter analysis was performed in GraphPad Prism software to fit dose-response curves and calculate IC50 values. A represents that IC50 < 50 nM. Table 2. Inhibitory activity against Menin-MLL protein binding
(In general: In fluorescence polarisation assays a small probe gives low polarisation when free and higher when bound to something large.)

The nature of series [4]: In vitro liver microsomal stability, mouse. The following applies: mouse liver microsomes 0.5 mg/mL, compound 1 µM, 37 °C. In general terms: Liver microsomes are vesicles of endoplasmic reticulum, rich in cytochrome P450 enzymes.
Description: (§2) Liver microsome incubation samples were prepared by mixing a PBS buffer (pH 7.4), a liver microsome solution from various species (human, mouse, monkey, dog, and rat) (0.5 mg/mL), a test compound (final concentration: 1 µM), and an NADPH + MgCl2 solution, followed by incubation at 37 °C and 300 rpm. Samples were collected from the reaction solution at the time points of 15 min and 60 min. Zero-hour samples were prepared by mixing a PBS buffer (pH 7.4), a liver microsome solution (0.5 mg/mL), and a test compound. An acetonitrile solution containing an internal standard was added to the samples, and supernatants were prepared by protein precipitation, diluted, and then assayed by LC-MS/MS.
Series [5] is described as follows: In vitro liver microsomal stability, human. The settings on record: human liver microsomes 0.5 mg/mL, compound 1 µM, 37 °C.
Description: as §2

For the compound `C=C1C[C@@H]2CC[C@H]1[C@@H](C(=O)N1CCC3(CC1)CN(c1ncncc1Oc1ccc(F)cc1C(=O)N(CC)C(C)C)C3)N2` [Compound 2], the IC50 in series [1], in series [2] and in series [3] was less than 50 nM in each case.
For `C=C1C[C@@H]2CC[C@H]1[C@@H](C(=O)N1CCC3(CC1)CN(c1ncncc1Oc1ccc(F)cc1-c1cccnc1C1CC1)C3)N2` [Compound 3], the IC50 in series [1], in series [2] and in series [3] was less than 50 nM throughout.
As to `C=C1C[C@@H]2CC[C@H]1[C@@H](C(=O)N1CCC3(CC1)CN(c1ncncc1Oc1ccc(F)cc1-c1ccnn1C(C)C)C3)N2` [Compound 4], the IC50 in series [1], in series [2] and in series [3] was less than 50 nM each time.
On to `C=C1CC2CCC1C(C(=O)N1CCC3(CC1)CN(c1ncncc1Oc1ccc(F)cc1C(=O)N(C)C(C)C)C3)N2` (stereo not shown) [Compound 6], for which the IC50 in series [2] is less than 50 nM.
On to `C=C1C[C@@H]2CC[C@H]1[C@@H](C(=O)N1CCC3(CC1)CN(c1ncnnc1Oc1ccc(F)cc1C(=O)N(CC)C(C)C)C3)N2` [Compound 27], for which the IC50 in series [1], in series [2] and in series [3] was less than 50 nM throughout. The figures for the “Residuals at 60 min (%)” value in series [4] and in series [5] were greater than 60% and greater than 40%, respectively.
Consider `C=C1C[C@@H]2CC[C@H]1[C@@H](C(=O)N1CCC3(CC1)CN(c1ncnnc1Oc1ccc(F)cc1-c1cccnc1C1CC1)C3)N2` [Compound 31], for which the IC50 in series [1], in series [2] and in series [3] was less than 50 nM in each case.
For the compound `C=C1C[C@@H]2CC[C@H]1[C@@H](C(=O)N1CCC3(CC1)CN(c1ncnnc1Oc1ccc(F)cc1-c1ccnn1C(C)C)C3)N2` [Compound 32], the IC50 in series [2] and in series [3] was less than 50 nM throughout.
Regarding `C=C1C[C@@H]2CC[C@H]1[C@@H](C(=O)N1CCC3(CC1)CN(c1ncnnc1Oc1ccc(F)cc1-c1cncnc1C1CC1)C3)N2` [Compound 33], the IC50 in series [2] and in series [3] was less than 50 nM throughout. The “Residuals at 60 min (%)” value in series [4] was greater than 60%.
`C=C1CC2CCC1C(C(=O)N1CCC3(CC1)CN(c1ncnnc1Oc1ccc(F)cc1-c1cccnc1OC)C3)N2` (stereo not shown) [Compound 34]: the IC50 in series [2] was less than 50 nM.
Take `C=C1C[C@@H]2CC[C@H]1[C@@H](C(=O)N1CCC3(CC1)CN(c1ccnnc1Oc1ccc(F)cc1-c1cccnc1C1CC1)C3)N2` [Compound 35]: the IC50 in series [1], in series [2] and in series [3] was less than 50 nM each time.
Take `C=C1C[C@@H]2CC[C@H]1[C@@H](C(=O)N1CCC3(CC1)CN(c1ccnnc1Oc1ccc(F)cc1C(=O)N(CC)C(C)C)C3)N2` [Compound 36]: the IC50 in series [1], in series [2] and in series [3] was less than 50 nM each time.
Regarding `C=C1C[C@@H]2CC[C@H]1[C@@H](C(=O)N1CCC3(CC1)CN(c1ncnnc1Oc1ccc(F)cc1C(=O)N1C(C)CCCC1C)C3)N2` (stereo partly shown) [Compound 46], the IC50 in series [2] and in series [3] was less than 50 nM throughout.
For the compound `C=C1C[C@@H]2CC[C@H]1[C@@H](C(=O)N1CCC3(CC1)CN(c1ncnnc1Oc1ccc(F)cc1-c1cnccc1OC)C3)N2` [Compound 48], the IC50 in series [3] is less than 50 nM. Also, the “Residuals at 60 min (%)” value in series [4] is recorded as greater than 60%; in series [5], greater than 40%.
Regarding `C=C1C[C@@H]2CC[C@H]1[C@@H](C(=O)N1CCC3(CC1)CN(c1ncnnc1Oc1ccc(F)cc1C(=O)N(C(C)C)C(C)C)C3)N2` [Compound 50], the IC50 in series [1], in series [2] and in series [3] was less than 50 nM throughout.
As to `C=C1C[C@@H]2CC[C@H]1[C@@H](C(=O)N1CCC3(CC1)CN(c1ncnnc1Oc1ccc(F)cc1-c1cc(C(F)(F)F)cnc1C1CC1)C3)N2` [Compound 54], the IC50 in series [1], in series [2] and in series [3] was less than 50 nM each time.
Regarding `C=C1C[C@@H]2CC[C@H]1[C@@H](C(=O)N1CC3(C1)CN(c1ncnnc1Oc1ccc(F)cc1C(=O)N(CC)C(C)C)C3)N2` [Compound 56], the IC50 in series [1], in series [2] and in series [3] was less than 50 nM in each case. Further, in series [5], the “Residuals at 60 min (%)” value is on record as greater than 40%.
Take `C=C1CC2CCC1C(C(=O)N1CCC3(CC1)CN(c1ncnnc1Oc1c(F)cc(F)cc1-c1cccnc1C1CC1)C3)N2` (stereo not shown) [Compound 58]: the IC50 in series [2] was less than 50 nM.
On to `C=C1C[C@@H]2CC[C@H]1[C@@H](C(=O)N1CCC3(CC1)CN(c1ncnnc1Oc1ccc(F)cc1-c1ccc(O)nc1C1CC1)C3)N2` [Compound 64], for which the IC50 in series [2] and in series [3] was less than 50 nM in each case. For the same compound, the figures for the “Residuals at 60 min (%)” value in series [4] and in series [5] were greater than 60% and greater than 40%, respectively.
For `C=C1CC2CCC1C(C(=O)N1CCC3(CC1)CN(c1ncnnc1Oc1ccc(F)cc1-c1nccn1C(C)C)C3)N2` (stereo not shown) [Compound 65], in series [2], the IC50 is less than 50 nM.
On to `C=C1CC2CCC1C(C(=O)N1CCC3(CC1)CN(c1ncnnc1Oc1ccc(F)cc1-c1nccnc1C1CC1)C3)N2` (stereo not shown) [Compound 66], for which, in series [2], the IC50 was less than 50 nM.
As to `C=C1C[C@@H]2CC[C@H]1[C@@H](C(=O)N1CC3(C1)CN(c1ncnnc1Oc1ccc(F)cc1-c1cccnc1C1CC1)C3)N2` [Compound 67], the IC50 in series [1], in series [2] and in series [3] was less than 50 nM throughout.
Consider `C=C1CC2CCC1C(C(=O)N1CCC3(CC1)CN(c1ncnnc1Oc1ccc(F)cc1-c1ccnn1C1CC1)C3)N2` (stereo not shown) [Compound 70], for which the IC50 in series [2] was less than 50 nM.
For the compound `C=C1C[C@@H]2CC[C@H]1[C@@H](C(=O)N1CC3(C1)CN(c1ncnnc1Oc1ccc(F)cc1-c1ccnn1C(C)C)C3)N2` [Compound 71], the IC50 in series [1], in series [2] and in series [3] was less than 50 nM in each case.
`C=C1C[C@@H]2CC[C@H]1[C@@H](C(=O)N1CC3(C1)CN(c1ncnnc1Oc1ccc(F)cc1-c1cncnc1C1CC1)C3)N2` [Compound 73]: the IC50 in series [1], in series [2] and in series [3] was less than 50 nM throughout. Also, the “Residuals at 60 min (%)” value in series [4] is greater than 60%.
As for `C=C1C[C@@H]2CC[C@H]1[C@@H](C(=O)N1CCC3(CC1)CN(c1ncnnc1Oc1ccc(F)cc1-c1ccnnc1C1CC1)C3)N2` [Compound 74], the IC50 in series [1], in series [2] and in series [3] was less than 50 nM each time.
For the compound `C=C1CC2CCC1C(C(=O)N1CCCC3(CC1)CN(c1ncncc1Oc1ccc(F)cc1-c1cccnc1C1CC1)C3)N2` (stereo not shown) [Compound 76], the IC50 in series [1] and in series [2] was less than 50 nM in each case.
As to `C=C1CC2CCC1C(C(=O)N1CCCC3(CC1)CN(c1ncncc1Oc1ccc(F)cc1-c1cncnc1C1CC1)C3)N2` (stereo not shown) [Compound 77], the IC50 in series [1] and in series [2] was less than 50 nM each time.

For the origin of these results see patent EP4806897A1, “AZA-BRIDGED RING DERIVATIVE” (Chia Tai Tianqing Pharmaceutical Group Co., Ltd., priority 2023, dated 2025).
